Results: a melting point compilation (Tetko et al.; mined from patent text by program, amines drawn as free bases though some values may be those of a salt)

melting point | Compound
222 to 223 °C | N#Cc1ccc(C(=O)Nc2nc(-c3ccco3)c(C(=O)C3CCOCC3)s2)o1
138 to 139 °C | O=C(O)c1cccc(-c2cccc3oc(Cc4cccc(C(F)(F)F)c4)cc23)c1
33 to 35 °C | CCCCCCCCCCCNC(=O)N(CC)CC
151 °C | CC1(C)Cc2c(N)c(Cl)cc(-c3nc(C4CCN(CCCC#N)CC4)no3)c2O1
105 to 108 °C | CC#CCn1c(Cl)nc2c1c(=O)n(C)c(=O)n2C
81 to 82 °C | CCCn1cnc2c1c(=O)n(CCCCC(C)=O)c(=O)n2CC
202 to 204 °C | CCN(C(=O)c1ccccc1C(=O)c1ccccc1)C1CCCCC1NS(=O)(=O)c1ccc(C)cc1 (centres undefined)
221 °C | CC12CCC(CC1=C=C1C=CC(Nc3nc(Cl)nc(NC4=CCC(=C=C5CC6CCC5(C)C6(C)C)C=C4)n3)=CC1)C2(C)C
47 to 50 °C | CCC#CCOc1ccc(C=O)cc1OC
99.5 to 100 °C | CCCc1c(OCc2ccc(C(=O)OC)cc2)ccc(C(C)=O)c1O
217 to 219 °C | CCCCc1nc(NC(=O)Nc2ccccc2)[nH]c(=O)c1Cc1ccc(-c2ccccc2C(=O)OC)cc1
121 to 123 °C | O=C1NCCN1c1cccc(Cl)c1
88 to 90 °C | CC(=O)Oc1ccccc1C(=O)NC(Cl)C(Cl)(Cl)Cl (centres undefined)
137 to 139 °C | COc1ccc(C2CC(=O)C(C(=O)O)=CN2C2CC2)cc1 (centres undefined)
> 270 °C | Cc1cc(CO)c(C(=O)O)c(S)n1
189 to 190 °C | Cc1ccccc1C(=O)c1ccc(Nc2ccc(Br)cc2NC(=O)OCCl)cc1Cl
168 °C | Cc1cc(N)nc(CCc2nc3cc(-c4ccc(S(=O)(=O)N5CCC5)cc4)cnc3[nH]2)c1
157 to 160 °C | CCC(CC)Nc1c([N+](=O)[O-])cc(C)c(N)c1[N+](=O)[O-]

melting point | Compound
244 to 246 °C | CSc1ncc2c(n1)Nc1ccccc1-n1nnnc1-2
99 to 100 °C | C#Cc1cccc(NC(=O)C(Cl)Cl)c1
42 to 45 °C | O=[N+]([O-])c1cc(Br)ccc1-c1ccccc1F
142 to 144 °C | O=C(O)CCC(=O)c1ccc(-c2ccc(Cl)cc2)o1
220 to 221 °C | Oc1c2c(nn1-c1ccc(F)cc1)CCc1cc(F)ccc1-2
33 to 34.5 °C | CCCCCCCCSCCCC(=O)O
103 to 105 °C | CS(=O)(=O)c1ccc(-c2cnn(-c3cccc(C(F)(F)F)c3)c(=O)c2-c2ccc(Cl)cc2)cc1
163 to 165 °C | CC(C)NC(=O)CN1CCN(CCc2ccc(-c3cccc(N)n3)cc2)CC1
331 to 334 °C | O=C(O)CCC(=O)N1CCN(c2cc3c(cc2F)c(=O)c(C(=O)O)c2sccn23)CC1
168 to 169 °C | CCCc1nc2cc(C(=O)c3ccccc3)ccc2n1Cc1ccc(Cl)c(Cl)c1
49 to 52 °C | OCc1cccc(Nc2nc(Oc3ccccc3)nc(Oc3ccccc3)n2)c1
160 to 161 °C | Cc1ccc(C2(O)CCN(CCCc3nnc4n3CCCCC4)CC2)cc1
146 to 147 °C | CC(C)(Nc1cc(Cl)ccc1[N+](=O)[O-])C(=O)O
243 to 245 °C | O=C(O)CCc1c(C(=O)O)[nH]c2cc(-c3ccccc3)cc(-c3ccccc3)c12
46.5 to 47.5 °C | COc1ccccc1OCCN(Cc1ccccc1)C(=O)CCc1c[nH]c2ccccc12
146 to 149 °C | Cc1nc2ccccc2n1CCCNCC(O)COc1ccc(CC(N)=O)cc1 (centres undefined)
74 to 75 °C | CC(=O)OCc1c(Br)cccc1N1CCc2c(sc3c2CCCC3)C1=O

Compound | melting point
C=Cc1cc(O)cc2nc(-c3ccc(OP(=O)(OCC)OCC)c(F)c3)oc12 | 134 to 136 °C
COc1ccc(N2CCN(C)CC2)cc1-c1cn[nH]c1N | 174 to 178 °C
O=[N+]([O-])c1ccc(F)cc1CBr | 38 to 41 °C
CC(C)(C)C(=O)Nc1c(SC(F)(F)F)c(C#N)nn1-c1c(Cl)cc(C(F)(F)F)cc1Cl | 172 to 174 °C
